Assay: In vitro skin permeation, Franz-type diffusion cells, with light device irradiation
Format: in vitro ADME, pig
Details: Fucicort cream 4 mg/cm^2 on SC, p<0.005
Procedure: Full Thickness skin is removed from the back of pig ears. The subcutaneous tissue is removed and the skin is mounted in open two-chamber Franz-type diffusion cells (diffusion area: 3.14 cm^−2; recipient volume: 10 ml). Temperature is kept at 32° C. at the skin surface. Recipient phase is a 0.05 M isotonic acetate buffer, pH 4.5, and 2-propanol (80:20%, vol/vol). The experiments are carried out under sink condition.
The test formulation (4 mg/cm^2) is applied to the stratum corneum (SC) side of the skin. The treatment is reapplied at 3, 21, 27, 45, and 51 h, which simulates the actual dosage regimen in patients. At appropriate times (3, 21, 27, 45, 51, and 70 h) a specific amount of recipient phase is withdrawn and replaced by thermostated fluid. Samples are kept at 4° C. for a maximum of 2 days until high-performance liquid chromatography (HPLC) analysis. All permeation experiments are carried out in 6 replicates.
The same experiment as described above is carried out.
The same experiment as described above is carried out. Again, the skin is irradiated for 2 h after each application of the cream, but with the devices Dev4-6 of Example 4 in three separate runs, one run for each device. The devices are positioned directly above the SC. If the cream is applied or reapplied the light emitting device is repositioned on the SC 5 minutes afterwards. After having the skin irradiated for 1 h, the irradiation source is removed from the skin. Again samples of the recipient are taken and analyzed by HPLC in time intervals given above.

permeation enhanced as compared to the control experiment (skin irradiated for 30 min with IR device Dev5, positioned 5 minutes after application): 20% | permeation enhanced as compared to the control experiment (skin irradiated for 2 h after each application with IR devices Dev4-6, one run each, all three devices): more than 27% | permeation enhanced as compared to the control experiment (skin irradiated for 2 h after each application with device Dev1 (red OLED), recipient samples by HPLC): 14%
Structure (SMILES): C[C@H]1C[C@H]2[C@@H]3CCC4=CC(=O)C=C[C@]4(C)[C@@]3(F)[C@@H](O)C[C@]2(C)[C@@]1(O)C(=O)CO [betamethasone]

Reference: patent US9597527B2, “Enhancement of penetration and action” (Merck Patent GmbH, priority 2010, dated 2017)
